Experimental data: ChEMBL document CHEMBL1201862, “PubChem BioAssay data set” (2004)
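Five compound concentrations were applied to cells in 96-well plates for 48 hours; endpoints were derived by simple linear interpolation of the resulting dose-response curve. GI50: concentration for 50% inhibition of growth.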 The source made the active and inactive calls. Cut-off read from the data, not from the text of the source: active = GI50 up to about 1.1 µM and inactive = higher.

How the values were obtained:
Assay in all cases: growth of human tumour cells (NCI), 48 h
[1] = tested on: 786-0
[2] = tested on: ACHN
[3] = tested on: CAKI-1
[4] = tested on: COLO 205
[5] = tested on: NCI-H23
[6] = tested on: NCI-H522
[7] = tested on: OVCAR-8
[8] = tested on: RPMI-8226
[9] = tested on: RXF 393
[10] = tested on: SK-MEL-2
[11] = tested on: SR
[12] = tested on: A498
[13] = tested on: IGROV-1
[14] = tested on: NCI-H460
[15] = tested on: SK-MEL-5

Row | Compound | GI50 [1] | GI50 [2] | GI50 [3] | GI50 [4] | GI50 [5] | GI50 [6] | GI50 [7] | GI50 [8] | GI50 [9] | GI50 [10] | GI50 [11] | GI50 [12] | GI50 [13] | GI50 [14] | GI50 [15]
1 | COC(=O)c1ccc(Cl)cc1NC(=O)C1CCCCC1 | > 100 µM (inactive) | > 100 µM (inactive) | > 100 µM (inactive) | > 100 µM (inactive) | > 100 µM (inactive) | > 100 µM (inactive) | > 100 µM (inactive) | > 100 µM (inactive) | 20.3 µM (inactive) | > 100 µM (inactive) | > 100 µM (inactive) |  |  |  | 
2 | C1C[N+]23CCC[N+]2(C1)CCC3 (stereo not given) | > 100 µM (inactive) | > 100 µM (inactive) | > 100 µM (inactive) | > 100 µM (inactive) | > 100 µM (inactive) | > 100 µM (inactive) | > 100 µM (inactive) |  | > 100 µM (inactive) | > 100 µM (inactive) |  | > 100 µM (inactive) | > 100 µM (inactive) | > 100 µM (inactive) | > 100 µM (inactive)
3 | O=C1C(=O)C(Br)(Br)C(Br)=C1Br | 16.4 µM (inactive) | 15.9 µM (inactive) | 18.4 µM (inactive) | 17.1 µM (inactive) | > 10 µM (inactive) | 2.33 µM (inactive) | 17.3 µM (inactive) | 22.3 µM (inactive) | > 10 µM (inactive) | 17.1 µM (inactive) |  |  | 38.1 µM (inactive) | 34 µM (inactive) | 15.4 µM (inactive)
4 | O=C(OCCOCCOC(=O)c1c[nH]cc1-c1ccccc1)c1c[nH]cc1-c1ccccc1 | 25.9 µM (inactive) |  | 26.5 µM (inactive) | 19.8 µM (inactive) | 17.1 µM (inactive) | 15.3 µM (inactive) | 29.4 µM (inactive) | 15 µM (inactive) | 15.4 µM (inactive) |  | 21 µM (inactive) | 19.3 µM (inactive) | 21.3 µM (inactive) | 21.2 µM (inactive) | 16.8 µM (inactive)
5 | CCO/C([O-])=C(\C(=O)c1ccccc1)[n+]1c(C)n(C)c2ccccc21 | > 100 µM (inactive) |  | > 100 µM (inactive) | > 100 µM (inactive) | > 100 µM (inactive) | > 100 µM (inactive) | > 100 µM (inactive) | > 100 µM (inactive) | > 100 µM (inactive) | > 100 µM (inactive) |  | > 100 µM (inactive) | > 100 µM (inactive) | > 100 µM (inactive) | > 100 µM (inactive)
6 | Cc1ccc(C)c(N2C(=O)C(=O)C(c3nc4ccccc4s3)/C(=N\c3cccc4c(=O)[nH][nH]c(=O)c34)C2=O)c1 (stereo not given) | > 100 µM (inactive) | > 100 µM (inactive) | > 100 µM (inactive) | 38.2 µM (inactive) | > 100 µM (inactive) |  | > 100 µM (inactive) | > 100 µM (inactive) |  | > 100 µM (inactive) | > 100 µM (inactive) | > 100 µM (inactive) | > 100 µM (inactive) | > 100 µM (inactive) | > 100 µM (inactive)
7 | O=C(O)CNS(=O)(=O)c1ccc(NC(=O)c2cccc([N+](=O)[O-])c2)cc1 | > 100 µM (inactive) | > 100 µM (inactive) | > 100 µM (inactive) | > 100 µM (inactive) | > 100 µM (inactive) | > 100 µM (inactive) | > 100 µM (inactive) | > 100 µM (inactive) | > 100 µM (inactive) | > 100 µM (inactive) |  | > 100 µM (inactive) | > 100 µM (inactive) | > 100 µM (inactive) | > 100 µM (inactive)
8 | C[Si](C)(C)OC1CC(=O)OC1n1cc(F)c(=O)[nH]c1=O (stereo not given) | 21.4 µM (inactive) | 11.7 µM (inactive) | 23.9 µM (inactive) | 21 µM (inactive) | > 27.8 µM (inactive) | 19.5 µM (inactive) | 31.8 µM (inactive) | 3.14 µM (inactive) | > 43.6 µM (inactive) | > 100 µM (inactive) | 2.31 µM (inactive) | > 100 µM (inactive) | > 96.6 µM (inactive) | 3.72 µM (inactive) | > 100 µM (inactive)
9 | Cc1nn(C(=O)CC(=O)Nc2ccc(Cl)cc2)c(C)c1/N=N/c1ccccc1C(=O)O | > 100 µM (inactive) |  | > 100 µM (inactive) | > 100 µM (inactive) | > 100 µM (inactive) | > 100 µM (inactive) | > 100 µM (inactive) | > 100 µM (inactive) |  | > 100 µM (inactive) |  | > 100 µM (inactive) | > 100 µM (inactive) | > 100 µM (inactive) | > 100 µM (inactive)
10 | N#CNc1nc(N)c(-c2ccc(Cl)cc2)c(C(=O)Nc2nccs2)n1 | > 100 µM (inactive) | > 100 µM (inactive) | > 100 µM (inactive) |  | > 100 µM (inactive) | > 100 µM (inactive) | > 100 µM (inactive) | > 100 µM (inactive) | > 100 µM (inactive) | > 100 µM (inactive) |  | > 100 µM (inactive) | > 100 µM (inactive) | > 100 µM (inactive) | > 100 µM (inactive)
11 | O=C1CCC2(c3ccc(Cl)cc3)Nc3cc(Cl)ccc3N12 (stereo not given) | 10.2 µM (inactive) | 10.4 µM (inactive) |  | 4.7 µM (inactive) | 10.9 µM (inactive) | 10.2 µM (inactive) | 7.76 µM (inactive) | 16.4 µM (inactive) | 11.9 µM (inactive) | 11.4 µM (inactive) | 5.9 µM (inactive) | 12.1 µM (inactive) | 13.6 µM (inactive) |  | 12.4 µM (inactive)
12 | CCCCNC(=O)CCN(C(=O)O)S(=O)(=O)c1ccc(NC(=O)c2ccccc2)cc1 | 11.9 µM (inactive) | > 100 µM (inactive) | > 100 µM (inactive) | 64.3 µM (inactive) | > 100 µM (inactive) | > 100 µM (inactive) | > 100 µM (inactive) | > 100 µM (inactive) |  | > 100 µM (inactive) | > 100 µM (inactive) | > 100 µM (inactive) | > 100 µM (inactive) | > 100 µM (inactive) | > 100 µM (inactive)
13 | NS(=O)(=O)c1ccc(NC(=O)c2cccc3c(Nc4ccc(S(N)(=O)=O)cc4)c4ccccc4nc23)cc1 | 25.3 µM (inactive) | > 100 µM (inactive) | 38.2 µM (inactive) | 54.5 µM (inactive) | 87.5 µM (inactive) | 10.8 µM (inactive) | 48.5 µM (inactive) | 9.25 µM (inactive) | 52.5 µM (inactive) | 20 µM (inactive) |  | > 100 µM (inactive) | > 100 µM (inactive) | > 100 µM (inactive) | 41.2 µM (inactive)
14 | C/C=C1\CN2CCc3c([nH]c4ccccc34)C2C=C1CCO (stereo not given) | > 340 µM (inactive) | > 340 µM (inactive) | > 340 µM (inactive) | > 340 µM (inactive) | > 340 µM (inactive) | > 340 µM (inactive) | > 340 µM (inactive) | > 340 µM (inactive) | > 340 µM (inactive) | > 340 µM (inactive) | > 340 µM (inactive) |  | > 340 µM (inactive) | > 340 µM (inactive) | > 340 µM (inactive)
15 | COC(=O)/C(=N\NC(C)(C)C)C(C(=O)OC)C(=O)C(=O)Nc1cc(Cl)ccc1Cl (stereo not given) | > 100 µM (inactive) | > 100 µM (inactive) | > 100 µM (inactive) | > 100 µM (inactive) | > 100 µM (inactive) | > 100 µM (inactive) | > 100 µM (inactive) |  | > 100 µM (inactive) | > 100 µM (inactive) | > 100 µM (inactive) | > 100 µM (inactive) | > 100 µM (inactive) | > 100 µM (inactive) | > 100 µM (inactive)
16 | CC1(C(=O)NCCN(CCNC(=O)C2(C)CC3(C)CC(C)(C2)C(=O)NC3=O)CCNC(=O)C2(C)CC3(C)CC(C)(C2)C(=O)NC3=O)CC2(C)CC(C)(C1)C(=O)NC2=O (stereo not given) | > 100 µM (inactive) | > 100 µM (inactive) | > 100 µM (inactive) | > 100 µM (inactive) | > 100 µM (inactive) |  | > 100 µM (inactive) | > 100 µM (inactive) | > 100 µM (inactive) | > 100 µM (inactive) | > 100 µM (inactive) | > 100 µM (inactive) | > 100 µM (inactive) | > 100 µM (inactive) | 
17 | COC1OC(COS(=O)(=O)c2ccc(C)cc2)C(O)C(OS(=O)(=O)c2ccc(C)cc2)C1OS(=O)(=O)c1ccc(C)cc1 (stereo not given) | > 100 µM (inactive) | > 100 µM (inactive) | 1.03 µM (active) | > 100 µM (inactive) | > 100 µM (inactive) | > 100 µM (inactive) | > 100 µM (inactive) | > 100 µM (inactive) | > 100 µM (inactive) | > 100 µM (inactive) | > 100 µM (inactive) |  | > 100 µM (inactive) | > 100 µM (inactive) | > 100 µM (inactive)
18 | CC(=O)n1c2ccccc2c2nc3nc(Oc4ccc(C)cc4)c4ccccc4c3cc21 | 65.8 µM (inactive) | > 100 µM (inactive) | > 100 µM (inactive) | > 100 µM (inactive) | 21.8 µM (inactive) | > 100 µM (inactive) | > 100 µM (inactive) | > 100 µM (inactive) |  | > 100 µM (inactive) | > 100 µM (inactive) |  | > 100 µM (inactive) | > 100 µM (inactive) | > 100 µM (inactive)
19 | Cc1ccc(NC(=O)COC(=O)c2cccc3c(=O)c4ccccc4[nH]c23)cc1 | 28.4 µM (inactive) | 27 µM (inactive) | 29.2 µM (inactive) | 21.9 µM (inactive) | 17.8 µM (inactive) | 9.29 µM (inactive) | 35.3 µM (inactive) | 87.7 µM (inactive) | 22.8 µM (inactive) |  | 13 µM (inactive) | 19.1 µM (inactive) | 44.8 µM (inactive) | 35.2 µM (inactive) | 21.6 µM (inactive)
20 | Cc1nc2c(n1CCN(C)C)C(=O)c1ccccc1C2=O | 28 µM (inactive) | 14.8 µM (inactive) |  | 4.47 µM (inactive) | 12.1 µM (inactive) | 5.38 µM (inactive) | 17.2 µM (inactive) |  | 19.4 µM (inactive) | 12.2 µM (inactive) | 11.7 µM (inactive) |  | 13.4 µM (inactive) | 9.84 µM (inactive) | 7.45 µM (inactive)
